Experimental findings from patent publication US10030020B2, “Spirocycle compounds and methods of making and using same” (Abide Therapeutics, Inc., priority 2016, dated 2018) are described below.

The target in test [1] is T1, MAGL (Mus musculus (Mouse), UniProt O35678). The experiment in a line: In vitro competitive activity-based protein profiling (mouse brain membrane fraction or cell lysates), MAGL band. The test is classed as biochemical. The settings on record: 1 μM, mouse; read-out: MAGL % Inh 1 μM (mouse). On the procedure: In Vitro Competitive Activity-Based Protein Profiling.
Proteomes (mouse brain membrane fraction or cell lysates) (50 μL, 1.0 mg/mL total protein concentration) were preincubated with varying concentrations of inhibitors at 37° C. After 30 min, FP—Rh (1.0 μL, 50 μM in DMSO) was added and the mixture was incubated for another 30 min at 37° C. Reactions were quenched with SDS loading buffer (50 μL-4×) and run on SDS-PAGE.

The target of test [2] is T2, ABHD6 (Mus musculus (Mouse), UniProt Q8R2Y0). In words: In vitro competitive activity-based protein profiling (mouse brain membrane fraction or cell lysates), ABHD6 band. In kind it is biochemical. As to conditions: 1 μM, mouse; read-out: ABHD6 % Inh 1 μM (mouse). An outline of the steps: (§1)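 Residual hydrolase activity was measured as gel band fluorescence after FP-Rh labelling (30 min, 37° C) of proteomes pretreated 30 min at 37° C with inhibitor.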

In test [3] the target is T3, FAAH (Mus musculus (Mouse), UniProt O08914). The experiment in a line: In vitro competitive activity-based protein profiling (mouse brain membrane fraction or cell lysates), FAAH band. The test is classed as biochemical. The settings on record: 1 μM, mouse; read-out: FAAH % Inh 1 μM (mouse). The method in brief:
as §1

The target in test [4] is MAGL (Homo sapiens (Human), UniProt Q99685). The experiment in a line: In vitro competitive activity-based protein profiling (human prefrontal cortex or cell membrane fractions; hMAGL expressed in HEK293T cells). As to conditions: human. In kind it is biochemical. An outline of the steps: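 Human prefrontal cortex or cell membrane proteomes (1.0-2.0 mg/mL), or lysates of HEK293T cells expressing hMAGL diluted into mock proteome, preincubated with inhibitor 30 min at 37° C. FP-Rh or JW912 probe then added for 30 min at room temperature. Residual labeling resolved by SDS-PAGE.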

Test [5] deals with T1, MAGL. In words: Mouse brain proteomes from inhibitor treated mice (oral gavage, sacrificed 4 h after administration, ABPP analysis). As to conditions: 5 mg/kg oral gavage. In kind it is in vivo, mouse (C57Bl/6J). The method in brief:
(§2)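 Compounds were given by oral gavage to wild-type C57Bl/6J mice in a vehicle such as PEG400/Ethanol/PBS (7/2/1). Animals were sacrificed 4 h after dosing, and brain proteomes were prepared and analyzed by established ABPP methods. Values are % inhibition at 5 mg/kg.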

For test [6], the target named is T3, FAAH. In words: Mouse brain proteomes from inhibitor treated mice (oral gavage, sacrificed 4 h after administration, ABPP analysis), FAAH. The test is classed as in vivo, mouse (C57Bl/6J). As to conditions: 5 mg/kg oral gavage. The method in brief:
as §2

The target of test [7] is T2, ABHD6. In words: Mouse brain proteomes from inhibitor treated mice (oral gavage, sacrificed 4 h after administration, ABPP analysis), ABHD6. The settings on record: 5 mg/kg oral gavage. The test is classed as in vivo, mouse (C57Bl/6J). The method in brief:
as §2

T1 sequence (O35678 whole entry): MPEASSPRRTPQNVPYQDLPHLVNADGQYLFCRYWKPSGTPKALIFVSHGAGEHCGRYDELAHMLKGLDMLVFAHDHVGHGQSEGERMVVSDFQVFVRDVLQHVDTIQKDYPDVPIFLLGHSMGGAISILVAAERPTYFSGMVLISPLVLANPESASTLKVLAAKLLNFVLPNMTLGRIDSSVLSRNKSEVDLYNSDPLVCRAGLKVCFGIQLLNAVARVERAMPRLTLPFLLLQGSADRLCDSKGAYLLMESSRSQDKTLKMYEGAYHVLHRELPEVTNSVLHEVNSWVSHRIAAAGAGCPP
T3 sequence (O08914 whole entry): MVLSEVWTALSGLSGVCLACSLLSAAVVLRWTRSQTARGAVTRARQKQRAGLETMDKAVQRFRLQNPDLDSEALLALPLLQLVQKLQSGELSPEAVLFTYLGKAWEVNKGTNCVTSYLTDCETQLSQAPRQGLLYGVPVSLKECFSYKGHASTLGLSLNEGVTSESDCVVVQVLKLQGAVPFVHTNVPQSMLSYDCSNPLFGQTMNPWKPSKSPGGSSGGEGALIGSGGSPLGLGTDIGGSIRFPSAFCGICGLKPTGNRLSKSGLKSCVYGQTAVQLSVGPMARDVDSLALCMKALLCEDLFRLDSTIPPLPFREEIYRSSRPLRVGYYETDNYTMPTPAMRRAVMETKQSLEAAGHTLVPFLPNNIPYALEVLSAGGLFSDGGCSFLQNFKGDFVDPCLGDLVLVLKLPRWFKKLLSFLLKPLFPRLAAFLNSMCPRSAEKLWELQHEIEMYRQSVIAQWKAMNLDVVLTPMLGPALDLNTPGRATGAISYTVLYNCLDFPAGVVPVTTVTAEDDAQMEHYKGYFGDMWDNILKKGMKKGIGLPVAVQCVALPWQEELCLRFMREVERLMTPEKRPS
Sequence of MAGL (Homo sapiens (Human), UniProt Q99685) (Q99685 whole entry): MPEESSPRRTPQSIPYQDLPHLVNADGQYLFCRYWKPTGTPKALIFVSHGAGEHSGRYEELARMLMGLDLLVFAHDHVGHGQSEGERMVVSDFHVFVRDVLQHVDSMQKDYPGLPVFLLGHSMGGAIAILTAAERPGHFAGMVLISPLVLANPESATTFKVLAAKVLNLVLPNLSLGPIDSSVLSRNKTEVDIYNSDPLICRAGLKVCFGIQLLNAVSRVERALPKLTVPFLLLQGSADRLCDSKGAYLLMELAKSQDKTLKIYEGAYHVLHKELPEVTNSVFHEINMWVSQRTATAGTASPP
T2 sequence (Q8R2Y0 whole entry): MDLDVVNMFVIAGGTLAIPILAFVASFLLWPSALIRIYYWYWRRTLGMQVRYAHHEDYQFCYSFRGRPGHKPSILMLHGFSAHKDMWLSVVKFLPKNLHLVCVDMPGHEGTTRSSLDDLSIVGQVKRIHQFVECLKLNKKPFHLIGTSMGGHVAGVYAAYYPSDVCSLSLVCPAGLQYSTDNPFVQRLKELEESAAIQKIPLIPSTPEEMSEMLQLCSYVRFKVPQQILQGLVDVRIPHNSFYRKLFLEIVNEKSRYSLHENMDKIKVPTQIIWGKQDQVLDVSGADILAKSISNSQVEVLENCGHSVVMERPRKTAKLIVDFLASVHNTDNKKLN

Regarding `O=C(O)C1CCN(Cc2cc(Cl)cc(CN3CCCC34CCN(C(=O)OC(C(F)(F)F)C(F)(F)F)CC4)c2)C1` (stereo not shown) [Example 272], the inhibition at 1 µM at MAGL [1] was greater than 75%; on ABHD6 [2] it was less than 25%; at FAAH [3], less than 25%. At MAGL [4], this molecule showed an IC50 of less than 100 nM. For the same molecule, at MAGL [5], the “MAGL % Inh 5 mg/kg (mouse)” value is listed as “### (### is ≥75%)”. Further, at FAAH [6], the “FAAH % Inh 5 mg/kg (mouse)” value is on record as “# (# is <25%)”. At ABHD6 [7], the “ABHD6 % Inh 5 mg/kg (mouse)” value is listed as “# (# is <25%)”.

With `O=C(O)[C@H]1CCCCN1c1cc(CN2CCCC23CCN(C(=O)OC(C(F)(F)F)C(F)(F)F)CC3)cc(C(F)(F)F)c1` [Example 274], the inhibition at 1 µM at MAGL [1] is greater than 75%; at ABHD6 [2] it was 25 to 75%; at FAAH [3], less than 25%. The IC50 on MAGL [4] was less than 100 nM. Moreover, at MAGL [5], the “MAGL % Inh 5 mg/kg (mouse)” value is reported as “### (### is ≥75%)”. Moreover, the “FAAH % Inh 5 mg/kg (mouse)” value on FAAH [6] is “# (# is <25%)”. The “ABHD6 % Inh 5 mg/kg (mouse)” value on ABHD6 [7] is “# (# is <25%)”.

As to `NC(=O)C1CCN(Cc2cc(C(F)(F)F)ccc2CN2CCCC23CCN(C(=O)OC(C(F)(F)F)C(F)(F)F)CC3)CC1` [Example 275], the inhibition at 1 µM on MAGL [1] was greater than 75%; at ABHD6 [2] it was 25 to 75%; at FAAH [3] it was less than 25%. Besides, the IC50 on MAGL [4] is less than 100 nM. In addition, the “MAGL % Inh 5 mg/kg (mouse)” value on MAGL [5] is on record as “### (### is ≥75%)”. Moreover, on FAAH [6], the “FAAH % Inh 5 mg/kg (mouse)” value is “# (# is <25%)”. In addition, the “ABHD6 % Inh 5 mg/kg (mouse)” value at ABHD6 [7] was “# (# is <25%)”.

As to `O=C(O)C1CCN(C(=O)c2cc(C(F)(F)F)ccc2CN2CCCC23CCN(C(=O)OC(C(F)(F)F)C(F)(F)F)CC3)CC1` [Example 281], the inhibition at 1 µM at MAGL [1] is greater than 75%; on ABHD6 [2] it was 25 to 75%; on FAAH [3], less than 25%. On MAGL [4], this molecule gave an IC50 of less than 100 nM. For the same molecule, at MAGL [5], the “MAGL % Inh 5 mg/kg (mouse)” value is recorded as “# (# is <25%)”. At FAAH [6], the “FAAH % Inh 5 mg/kg (mouse)” value is “# (# is <25%)”. For the same molecule, the “ABHD6 % Inh 5 mg/kg (mouse)” value on ABHD6 [7] is given as “# (# is <25%)”.
